pIC50: −log10 of the molar value. Values after ≈ are worked out from the molar mass of the structure shown. Structures can show the parent of a compound that is named as a salt. Where two headings read alike, the source gives them in different places.
Legend:
[1] = test system: methicillin-resistant Staphylococcus aureus (MRSA); assay: Antibacterial assay (resazurin, 96-well doubling dilution), MRSA; type: cell-based; settings: for MIC: MRSA, read-out: MIC, MRSA
Method: (§1) The antibacterial assay was monitored in 96-well plates by using a method as described previously. Briefly, 100 μL indicator solution (resazurin in sterile water, 100 μg/mL) was first placed into each of the sterility control wells (11th column) on the 96-well plates, and the indicator solution (about 7.5 mL, 100 μg/mL) was mixed with test bacteria (5 mL, 10^6 cfu/mL, OD600 = 0.07) followed by transferring (100 μL, each) to growth control wells (12th column) and all test wells (1–10th column). Then, each of 100 μL of test compounds (1 mg/mL) in beef extract peptone medium, along with the positive control solutions (prepared by adding kanamycin sulfate and vancomycin instead of the samples) and the negative control solution (3% DMSO of beef extract peptone medium), were applied to the wells in the 1st column of the plates. Once all samples and controls were properly applied to the 1st column of wells on the plate, half of the homogenized content (100 μL solution) was then parallel-transferred from the 1st column wells to the 2nd column wells, and each subsequent well was treated similarly (doubling dilution) up to the 10th column, followed by discarding the last 100 μL aliquot. Finally, the plates were incubated at 37 °C for 5–6 h until the color of growth control change to pink. The lowest concentration for each test compound at which […] was recorded as the MIC value of the test compound. In the bioassay, Gram-(+) bacterial strains of Staphyloccocus aureus (CMCC26003), methicillin-resistant Staphylococcus aureus (MRSA), Bacillus cereus (CMCC63302), Bacillus subtilis (CMCC63501), and Gram-(−) bacterial strain of Escherichia coli (CMCC44102) were used for the test, and they were all purchased from the Guangdong Institute of Microbiology (Guangzhou, China).

[2] = test system: Bacillus subtilis (CMCC63501); assay: Antibacterial assay (resazurin, 96-well doubling dilution), BS; type: cell-based
Method: as §1

[3] = test system: Bacillus cereus (CMCC63302); assay: Antibacterial assay (resazurin, 96-well doubling dilution), BC; type: cell-based
Method: as §1

[4] = test system: Escherichia coli (CMCC44102); assay: Antibacterial assay (resazurin, 96-well doubling dilution), EC; type: cell-based
Method: as §1

α-glucosidase = α-glucosidase (Saccharomyces cerevisiae, UniProt P53341); assay: α-Glucosidase inhibition assay (PNPG substrate); settings: read-out: α-Glucosidase inhibitory activity IC50; mean ± SD (n = 3); pH 6.8, PNPG, 37 °C, 15 min
Method: The a-glucosidase inhibitory activity of the ten isolated compounds was determined in 96-well microtiter plates following the method as described previously [15, 42]. In brief, α-glucosidase (20 μL, 0.5 U/mL) and various concentrations (500, 250, 125, 62.5, 31.2, 15.6, 7.8, 3.9 µg/mL) of tested compounds (120 μL) in 67 mM phosphate buffer (pH 6.8) were mixed in 96-well microtiter plates at room temperature for 10 min. Reactions were initiated by addition of 20 μL of 5.0 mM p-nitrophenyl-α-d-glucopyranoside (PNPG). The reaction mixture was incubated for 15 min at 37 °C in a final volume of 160 μL. Then, 0.2 M Na2CO3 (80 μL) was added to the incubation solution to stop the reaction and the absorbance was determined at 405 nm (for p-nitrophenol). The negative blank was set by adding phosphate buffer instead of test compounds via the same experimental procedure. […] The blank was set by adding phosphate buffer instead of the α-glucosidase using the same method. Inhibition rate (%) = [(ODnegative control − ODblank) − (ODtest − ODtest blank)]/(ODnegative blank − ODblank) × 100%. IC50 values were calculated and expressed as means ± standard deviations (SD) and SPSS 23.0 software was used for the analysis of variances.

[5] = test system: Staphyloccocus aureus (CMCC26003); assay: Antibacterial assay (resazurin, 96-well doubling dilution), SA; type: cell-based; settings: for MIC: read-out: MIC, SA
Method: as §1

[6] = methicillin-resistant Staphylococcus aureus, 37 °C, 5–6 h, resazurin colour change
[7] = 37 °C, 5–6 h, resazurin colour change
[8] = Staphyloccocus aureus, 37 °C, 5–6 h, resazurin colour change
[9] = CMCC63501, 37 °C, 5–6 h, resazurin colour change, read-out: MIC, BS
[10] = CMCC63302, 37 °C, 5–6 h, resazurin colour change, read-out: MIC, BC
[11] = CMCC44102, 37 °C, 5–6 h, resazurin colour change, read-out: MIC, EC

α-glucosidase, sequence (P53341 whole entry): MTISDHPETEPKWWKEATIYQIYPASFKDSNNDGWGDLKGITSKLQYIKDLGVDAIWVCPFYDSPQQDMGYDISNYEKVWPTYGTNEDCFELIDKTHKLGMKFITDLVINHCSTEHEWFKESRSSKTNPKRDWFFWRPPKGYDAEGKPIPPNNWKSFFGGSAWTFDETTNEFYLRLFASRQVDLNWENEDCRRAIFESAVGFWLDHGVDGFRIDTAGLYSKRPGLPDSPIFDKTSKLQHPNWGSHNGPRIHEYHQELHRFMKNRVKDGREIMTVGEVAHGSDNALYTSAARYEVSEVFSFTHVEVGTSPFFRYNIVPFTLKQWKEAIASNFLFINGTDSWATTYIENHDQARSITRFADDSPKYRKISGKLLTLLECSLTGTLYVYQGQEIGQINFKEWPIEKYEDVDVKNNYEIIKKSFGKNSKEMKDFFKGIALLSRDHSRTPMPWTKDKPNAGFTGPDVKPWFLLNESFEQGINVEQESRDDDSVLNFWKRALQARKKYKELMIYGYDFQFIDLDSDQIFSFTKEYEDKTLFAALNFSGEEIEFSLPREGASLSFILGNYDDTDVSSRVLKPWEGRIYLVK

Row | MIC, MRSA [1, 6] | MIC [1, 6] | MIC [2, 9] | MIC [3, 10] | MIC [4, 11] | MIC [5, 8] | Compound | further results
1 | inactive | > 100 µg/mL | 31.2 µg/mL (≈ 128 µM) | 31.2 µg/mL (≈ 128 µM) | > 100 µg/mL | 62.5 µg/mL (≈ 256 µM) | CC(=O)c1cc2c(O)c3oc(=O)ccc3cc2o1 [Compound 1, 2-acetyl-4-hydroxy-6H-furo [2,3-g]chromen-6-one] | 
2 | inactive | > 100 µg/mL | 62.5 µg/mL (≈ 226 µM) | 62.5 µg/mL (≈ 226 µM) | > 100 µg/mL | 62.5 µg/mL (≈ 226 µM) | CC(O)(CO)c1cc2c(O)c3oc(=O)ccc3cc2o1 (stereo not drawn) [Compound 2, 2-(1′,2′-dihydroxypropan-2′-yl)-4-hydroxy-6H-furo [2,3-g][1] benzopyran-6-one] | 
3 |  | 1.95 µg/mL (≈ 4.77 µM) | 1.95 µg/mL (≈ 4.77 µM) | 1.95 µg/mL (≈ 4.77 µM) | > 100 µg/mL | 1.95 µg/mL (≈ 4.77 µM) | COc1c(O)cc2oc3cc4c(c(O)c3c(=O)c2c1CC=C(C)C)C=CC(C)(C)O4 [Compound 4, 5,9-dihydroxy-8-methoxy-2,2-dimethyl-7-(3-methylbut-2-enyl)-2H,6H-pyrano [3,2-b]xanthen-6-one] | 
4 | inactive | > 100 µg/mL | 7.81 µg/mL (≈ 43.8 µM) | 31.2 µg/mL (≈ 175 µM) | > 100 µg/mL | 31.2 µg/mL (≈ 175 µM) | O=c1ccc2cc(O)c(O)cc2o1 [Compound 5, esculetin] | 
5 |  | > 100 µg/mL | > 100 µg/mL | > 100 µg/mL | > 100 µg/mL | > 100 µg/mL | COc1cc2oc(=O)ccc2cc1O [Compound 6, isoscopoletin] | 
6 |  | > 100 µg/mL | > 100 µg/mL | > 100 µg/mL | > 100 µg/mL | > 100 µg/mL | COc1cc2ccc(=O)oc2c(O)c1O [Compound 7, 7,8-dihydroxy-6-methoxycoumarin] | 
7 | inactive | > 100 µg/mL | 15.6 µg/mL (≈ 51.3 µM) | 31.2 µg/mL (≈ 103 µM) | > 100 µg/mL | 15.6 µg/mL (≈ 51.3 µM) | COc1c(O)cc2c(=O)oc3c(OC)c(O)ccc3c2c1O [Compound 8, 3,8,10-trihydroxy-4,9-dimethoxy-6H-benzo[c]chromen-6-one] | 
8 |  | > 100 µg/mL | > 100 µg/mL | > 100 µg/mL | > 100 µg/mL | > 100 µg/mL | O=c1cc(-c2ccc(O)cc2)oc2cc(O)c(O)cc12 [Compound 9, 6,7,4′-trihydroxyflavone] | 
9 |  | > 100 µg/mL | 1.95 µg/mL | 3.9 µg/mL | 1.95 µg/mL | 1.95 µg/mL | NC[C@H]1O[C@H](O[C@H]2[C@H](O)[C@@H](O[C@H]3O[C@H](CO)[C@@H](O)[C@H](N)[C@H]3O)[C@H](N)C[C@@H]2N)[C@H](O)[C@@H](O)[C@@H]1O [K, Kanamycin sulfate, reference compound] | 
10 |  |  |  |  |  |  | CN[C@H](CC(C)C)C(=O)N[C@H]1C(=O)N[C@@H](CC(N)=O)C(=O)N[C@H]2C(=O)N[C@H]3C(=O)N[C@H](C(=O)N[C@H](C(=O)O)c4cc(O)cc(O)c4-c4cc3ccc4O)[C@H](O)c3ccc(c(Cl)c3)Oc3cc2cc(c3O[C@@H]2O[C@H](CO)[C@@H](O)[C@H](O)[C@H]2O[C@H]2C[C@](C)(N)[C@H](O)[C@H](C)O2)Oc2ccc(cc2Cl)[C@H]1O [V, Vancomycin, reference compound] | MIC ([1]; Staphylococcus aureus): 3.9 µg/mL (≈ 2.69 µM); MIC ([2]; CMCC63501, read-out: MIC, BS): 1.95 µg/mL (≈ 1.35 µM); MIC ([3]; CMCC63302, read-out: MIC, BC): 1.95 µg/mL (≈ 1.35 µM); MIC ([4]; CMCC44102, read-out: MIC, EC): > 100 µg/mL; MIC [5]: 1.95 µg/mL (≈ 1.35 µM)

Row | Compound | MIC, MRSA [1, 6] | MIC [1, 6] | MIC [2, 9] | MIC [3, 10] | MIC [4, 11] | MIC [5, 8] | further results
11 | 6,7,8,4′-tetramethoxyflavone [Compound 10] | >100 µg/mL |  |  |  |  |  | MIC, BS [2, 7]: 15.6 µg/mL; MIC, BC [3, 7]: 62.5 µg/mL; MIC, EC [4, 7]: >100 µg/mL; pIC50 (α-glucosidase): < 3.00; MIC, SA [5, 8]: 62.5 µg/mL

From article PMC9145846, “Polycyclic Phenol Derivatives from the Leaves of Spermacoce latifolia and Their Antibacterial and α-Glucosidase Inhibitory Activity” (Molecules, 2022)
